Test results: BindingDB's records for doi:10.7270/Q2TX3CTT (Broad Institute, 2010)

Target: Glycogen synthase kinase-3 beta (Homo sapiens, UniProt P49841)
Experiment: concentration-response blocking of human GSK3B – biochemical, luminescence, cell-free homogeneous, retest, dose response (AID 434954)

Chain of Glycogen synthase kinase-3 beta (P49841 whole entry): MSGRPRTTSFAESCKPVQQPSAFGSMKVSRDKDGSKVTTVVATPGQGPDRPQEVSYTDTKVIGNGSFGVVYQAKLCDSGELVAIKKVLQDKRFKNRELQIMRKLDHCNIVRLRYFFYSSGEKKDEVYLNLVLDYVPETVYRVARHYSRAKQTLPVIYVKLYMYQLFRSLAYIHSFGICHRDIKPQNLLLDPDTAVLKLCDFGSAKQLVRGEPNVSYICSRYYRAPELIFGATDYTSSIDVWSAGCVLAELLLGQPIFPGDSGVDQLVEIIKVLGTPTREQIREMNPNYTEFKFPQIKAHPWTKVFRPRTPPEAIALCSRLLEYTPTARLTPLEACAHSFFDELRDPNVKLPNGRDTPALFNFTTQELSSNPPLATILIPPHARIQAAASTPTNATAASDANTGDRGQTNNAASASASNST

Row | EC50 | Compound
1 | > 300 µM | Cc1nn(CC(=O)NCCCN2CCCCC2)c(=O)c2cccn12 [2-(4-methyl-1-oxidanylidene-pyrrolo[1,2-d][1,2,4]triazin-2-yl)-N-(3-piperidin-1-ylpropyl)ethanamide]
2 | > 300 µM | COc1ccccc1-n1c(S)nnc1-c1ccco1 [MLS001214684]
3 | > 300 µM | CCN(CC)Cc1c(C(=O)NN=Cc2c(Cl)cccc2Cl)nnn1-c1nonc1N [SMR000620609]
4 | > 300 µM | CN(C)/N=N/c1ccc(S(N)(=O)=O)cc1 [SMR000272943]
5 | > 300 µM | Cc1ccc(CNc2nc(N)c([N+](=O)[O-])c(Nc3ccc(F)cc3)n2)cc1 [N4-(4-fluorophenyl)-N2-[(4-methylphenyl)methyl]-5-nitro-pyrimidine-2,4,6-triamine]
6 | > 300 µM | Fc1ccc(CSc2nnc(-c3ccco3)o2)cc1
7 | > 300 µM | COc1c(CC=C(C)C)cc(C2CC(=O)c3c(O)cc(O)cc3O2)c(CC=C(C)C)c1O (stereo not drawn) [5,7-dihydroxy-2-[3-hydroxy-4-methoxy-2,5-bis(3-methylbut-2-enyl)phenyl]-2,3-dihydrochromen-4-one]
8 | 28 µM | CC1=Nc2ncnn2C(c2cccnc2)C1C(=O)OCc1ccccc1 (stereo not drawn) [(phenylmethyl) 5-methyl-7-pyridin-3-yl-1,7-dihydro-[1,2,4]triazolo[1,5-a]pyrimidine-6-carboxylate]
9 | 51.5 µM | CCOC(=O)C1=C(C)NC(=O)C1=CNc1ccccc1 [SMR000168580]
10 | > 300 µM | COC(=O)c1ccc(-n2c(O)cc(N3CCN(C(=O)c4ccco4)CC3)c2O)cc1 [MLS000027707]
11 | > 300 µM | Cc1ncc(C=C2C(=O)Nc3ccccc32)[nH]1 [3-[(Z)-(2-methyl-1H-imidazol-4-yl)methylidene]-1H-indol-2-one]
12 | > 300 µM | CCOc1ccc(-c2nnc3ccc(SC)nn23)cc1 [SMR000028968]
13 | > 300 µM | O=Cc1cc(CCC(=O)O)ccc1O [SMR000639316]
14 | 8.4 µM | Cc1cccc(Nc2nc(N)c([N+](=O)[O-])c(NCc3ccco3)n2)c1 [SMR000220105]
15 | > 300 µM | COCCOC(=O)C1C(C)=Nc2ncnn2C1c1ccccc1 (stereo not drawn)
16 | > 300 µM | COCCN(CC(=O)NCc1ccccc1)C(=O)CCC(=O)Nc1ccccn1 [SMR000004552]
17 | 13.4 µM | O=C(c1ccc(Cl)cc1)c1coc2ccc(O)cc12 [(4-Chloro-phenyl)-(5-hydroxy-benzofuran-3-yl)-methanone]
18 | 1.25 µM | CCOc1ccc2nc(NC(=O)CSc3nc4cccnc4n3C)sc2c1
19 | > 300 µM | Oc1ccc2oc3c(c2c1)CCCC3
20 | > 300 µM | Cc1ccc(NC2=CC(=O)CC(C)(C)C2)cc1C [3-(3,4-dimethylanilino)-5,5-dimethyl-1-cyclohex-2-enone]
21 | > 300 µM | CC1(C)CC(=O)C=C(Nc2ccc3c(c2)OCCO3)C1 [3-(2,3-dihydro-1,4-benzodioxin-6-ylamino)-5,5-dimethyl-1-cyclohex-2-enone]
22 | > 300 µM | CN1CCc2[nH]c3ccc(C(=O)NN)cc3c2C1 [SMR000131639]
23 | > 300 µM | O=C(O)CSCC(=O)NCc1c(Cl)cccc1Oc1ccccc1
24 | 25.4 µM | O=C1Nc2ccccc2Nc2ccc([N+](=O)[O-])cc21 [SMR000550741]

Row | EC50 | Compound
25 | > 300 µM | CCCn1nc(NC(=O)CC(C)C)c2cc3ccccc3nc21 [SMR000043522]
26 | > 300 µM | CCOc1ccc(NC(=O)COC(=O)c2ccc3c(c2)C(=O)N(CCc2ccccc2)C3=O)cc1 [SMR000261375]
27 | > 300 µM | CC(=O)Nc1c(-c2ccccc2)nc2ccc(Cl)cn12 [MLS001077169]
28 | > 300 µM | Cc1ccsc1C1NC(=O)c2c(sc3c2CCCC3)N1 (stereo not drawn) [MLS000027648]
29 | 71.2 µM | Cc1nn(-c2ccccc2)cc1CN=O
30 | > 300 µM | CCOC(=O)CSc1ccc2nnc(CCNS(=O)(=O)c3ccccc3)n2n1 [ethyl [(3-{2-[(phenylsulfonyl)amino]ethyl}[1,2,4]triazolo[4,3-b]pyridazin-6-yl)thio]acetate]
31 | > 300 µM | CCOCCOC(=O)c1ccc(-n2cnc(C)n2)nc1 [SMR000337218]
32 | > 300 µM | Cc1ccc(C(=O)c2coc3ccc(O)c(Cl)c23)cc1 [(4-chloro-5-hydroxy-3-benzofuranyl)-(4-methylphenyl)methanone]
33 | > 300 µM | CCOC(=O)CNC(=O)CSc1ccc2nnc(-c3cccnc3)n2n1 [ethyl 2-[[2-[(3-pyridin-3-yl-[1,2,4]triazolo[4,3-b]pyridazin-6-yl)sulfanyl]acetyl]amino]acetate]
34 | > 300 µM | O=C1N=C(NCc2ccccc2)SC1=Cc1ccccc1 [MLS000589841]
35 | > 300 µM | N#Cc1c(-c2ccccc2)nc(SCC(=O)NC2CCCCC2)[nH]c1=O [2-[(5-cyano-4-oxo-6-phenyl-1H-pyrimidin-2-yl)sulfanyl]-N-cyclohexylacetamide]
36 | 5.82 µM | Nc1nc(NCC2CCCO2)nc(Nc2ccc(F)cc2)c1[N+](=O)[O-] (stereo not drawn) [SMR000219528]
37 | > 300 µM | CCCc1nc2c([nH]1)c(=O)n(C)c(=O)n2C
38 | 14.7 µM | COc1ccc2occ(C(=O)c3ccc(N)cc3)c2c1 [SMR000539215]
39 | > 300 µM | CCOC(=O)C=C(C)[N+]1=N[C-](c2ccc(OC)cc2)CC1c1cccc([N+](=O)[O-])c1 (stereo not drawn) [(Z)-3-[5-(4-methoxyphenyl)-3-(3-nitrophenyl)-3,4-dihydropyrazol-2-yl]-2-butenoic acid ethyl ester]
40 | 2.07 µM | O=C1NCCCc2c1oc1ccc(O)cc21 [7-hydroxy-2,3,4,5-tetrahydro-[1]benzofuro[2,3-c]azepin-1-one]
41 | > 300 µM | CCNc1ccc(S(=O)(=O)N(C)C)cc1NCC(=O)Nc1ccc(Br)cc1F [N-(4-bromanyl-2-fluoranyl-phenyl)-2-[[5-(dimethylsulfamoyl)-2-(ethylamino)phenyl]amino]ethanamide]
42 | > 300 µM | Cc1ccc(NC(=S)NC2CC3CCC(C2)N3Cc2ccco2)c(C)c1 (stereo not drawn) [1-(2,4-dimethylphenyl)-3-[8-(2-furanylmethyl)-8-azabicyclo[3.2.1]octan-3-yl]thiourea]
43 | > 300 µM | CCOC(=O)c1cnc2c(C)cccc2c1Nc1ccc(N2CCOCC2)cc1 [ethyl 8-methyl-4-[(4-morpholin-4-ylphenyl)amino]quinoline-3-carboxylate]
44 | > 300 µM | CC(C)Cc1ccccc1O [SMR000639202]
45 | 40 µM | COC(=O)c1nnn(-c2nonc2N)c1CSc1nnc(N)s1 [1-(4-amino-1,2,5-oxadiazol-3-yl)-5-[[(5-amino-1,3,4-thiadiazol-2-yl)thio]methyl]-4-triazolecarboxylic acid methyl ester]
46 | > 300 µM | O=C(/[O+]=N/[CH-]c1ccc(N2CCCCC2)c([N+](=O)[O-])c1)c1ccc(Cl)cc1Cl [MLS000326612]
47 | > 300 µM | COc1ccc(-c2csc(N3CCOCC3)n2)cc1OC
48 | > 300 µM | Cc1oc2c(CN(C)C)c(O)ccc2c(=O)c1-c1ccc2ccccc2n1 [8-[(dimethylamino)methyl]-2-methyl-7-oxidanyl-3-quinolin-2-yl-chromen-4-one]

Row | EC50 | Compound
49 | > 300 µM | COC(CNC(=O)CCc1c(C)nc2c(c(C)nn2-c2ccc(C)cc2)c1C)OC [N-(2,2-dimethoxyethyl)-3-[3,4,6-trimethyl-1-(4-methylphenyl)pyrazolo[3,4-b]pyridin-5-yl]propanamide]
50 | > 300 µM | COc1cccc2cc(C(=O)CS(=O)(=O)c3ccc(C(C)(C)C)cc3)c(=O)oc12 [3-[2-(4-tert-butylphenyl)sulfonyl-1-oxoethyl]-8-methoxy-1-benzopyran-2-one]
51 | > 300 µM | CN1CC(=O)Nc2ccc([N+](=O)[O-])cc2C1=O
52 | 42.5 µM | C=CCNC(=S)NN=Cc1cn(-c2ccccc2)nc1-c1ccc(OC)cc1 [SMR000212115]
53 | > 300 µM | COc1c(CC=C(C)C)cc([C@@H]2CC(=O)c3c(O)cc(O)cc3O2)cc1CC=C(C)C [abyssinone-V-4'-O-methyl ether]
54 | > 300 µM | CN(C)CC(=O)N1c2ccccc2Sc2ccc(Cl)cc21
55 | > 300 µM | COc1ccc2nc(Cl)cc(Cl)c2c1 [SMR000430028]
56 | 2.36 µM | O=C(CN1C(=O)CCC1=O)Nc1cccc2c1C(=O)NC2=O [MLS000703473]
57 | > 300 µM | Cc1ccc2sc(N3CCN(CCNC(=O)c4ccco4)CC3)nc2c1C [SMR000811862]
58 | > 300 µM | COc1ccc(OC)c(C(O)c2coc3ccc(O)c(CN(C)C)c23)c1 (stereo not drawn)
59 | > 300 µM | CCn1nc(NC(=O)CC(C)C)c2cc3ccc(C)cc3nc21 [N-(1-ethyl-7-methylpyrazolo[3,4-b]quinolin-3-yl)-3-methylbutanamide]
60 | 20.4 µM | Clc1ccc(CN=Nc2ncnc3nc[nH]c23)cc1 [MLS000419189]
61 | 16.9 µM | O=C1Nc2cc(C(=O)N3CCC(N4CCCCC4)CC3)ccc2S/C1=C\c1ccccc1 [SMR000635251]
62 | > 300 µM | CCCn1c(SCC(=O)Nc2ccccc2OC)nnc1-c1ccco1
63 | > 300 µM | O=C1CC(N2CCC(c3nc4ccccc4s3)CC2)C(=O)N1 (stereo not drawn) [MLS000063725]
64 | > 300 µM | COC(=O)c1ccc(Nc2nc(-c3ccncc3)nc3ccccc23)cc1 [4-[(2-pyridin-4-yl-4-quinazolinyl)amino]benzoic acid methyl ester]
65 | 67.1 µM | CNc1nc(N)c([N+](=O)[O-])c(NCCO)n1
66 | > 300 µM | O=C(COc1ccccc1[N+](=O)[O-])NN=C/C=C/c1ccco1 [N-[[(E)-3-(furan-2-yl)prop-2-enylidene]amino]-2-(2-nitrophenoxy)acetamide]
67 | > 300 µM | Nc1nc(NCc2ccco2)nc(Nc2cccc(F)c2)c1[N+](=O)[O-] [SMR000436034]
68 | > 300 µM | NS(=O)(=O)c1ccc(NC(=O)CN2C(=O)CCC2=O)cc1 [2-[2,5-bis(oxidanylidene)pyrrolidin-1-yl]-N-(4-sulfamoylphenyl)ethanamide]
69 | > 300 µM | COc1ccc(N2C(=O)C3CCCN3C2c2ccccc2F)cc1 (stereo not drawn) [MLS000117169]
70 | 6.97 µM | COC(=O)c1nnn(-c2nonc2N)c1CN1CCc2ccccc21 [1-(4-amino-1,2,5-oxadiazol-3-yl)-5-(2,3-dihydroindol-1-ylmethyl)-4-triazolecarboxylic acid methyl ester]
71 | > 300 µM | O=C(CSc1ccc(F)cc1)Nc1ccc(N2CCOCC2)cc1 [2-(4-fluorophenyl)sulfanyl-N-(4-morpholin-4-ylphenyl)ethanamide]
72 | 79.7 µM | Cc1ccc(Nc2nc(N)c([N+](=O)[O-])c(NCCO)n2)cc1 [MLS000333433]

Row | Compound | EC50
73 | Cc1nonc1-c1nnc(-c2nonc2N)[nH]1 [SMR000040798] | 29.7 µM
